pKi: −log10 of the molar value.
Target: beta-hexosaminidase HsHex (Homo sapiens)
Experiment: Inhibition of human beta-N-acetylhexosaminidase using p-nitrophenyl glycoside as substrate by spectrometric method

Compound: O=C1c2cccc3cccc(c23)C(=O)N1CCNCCN1C(=O)c2cccc3cccc(c23)C1=O
- pKi: 5.49

Reference: BindingDB's records for doi:10.1021/acsmedchemlett.8b00406 (China Agricultural University, 2018)
